From PubChem BioAssay (NCI)
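Five concentrations, 48 hours, 96-well plates. Here, GI50 denotes the concentration required for 50% inhibition of growth. TGI is the concentration that stops growth completely.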

What was measured:
Experiment in all cases: NCI-60 cell line screen, 48 h
A498 renal = tested on: A498 renal
ACHN renal = tested on: ACHN renal
EKVX NSCLC = tested on: EKVX NSCLC
HCT-116 colon = tested on: HCT-116 colon
NCI-H23 lung = tested on: NCI-H23 lung
NCI-H460 lung = tested on: NCI-H460 lung
OVCAR-4 ovarian = tested on: OVCAR-4 ovarian
RXF 393 renal = tested on: RXF 393 renal
SF-268 CNS = tested on: SF-268 CNS
UACC-257 melanoma = tested on: UACC-257 melanoma

Structure (SMILES) | TGI (A498 renal) [µM] | TGI (ACHN renal) [µM] | TGI (EKVX NSCLC) [µM] | TGI (HCT-116 colon) [µM] | TGI (NCI-H23 lung) [µM] | TGI (NCI-H460 lung) [µM] | TGI (OVCAR-4 ovarian) [µM] | TGI (RXF 393 renal) [µM] | TGI (SF-268 CNS) [µM] | TGI (UACC-257 melanoma) [µM] | GI50 (A498 renal) [µM] | GI50 (ACHN renal) [µM] | GI50 (EKVX NSCLC) [µM] | GI50 (HCT-116 colon) [µM] | GI50 (NCI-H23 lung) [µM] | GI50 (NCI-H460 lung) [µM] | GI50 (OVCAR-4 ovarian) [µM] | GI50 (RXF 393 renal) [µM] | GI50 (SF-268 CNS) [µM] | GI50 (UACC-257 melanoma) [µM]
C=C1C[C@@H]2C[C@@H](C)CC(O)[C@]2(CCCN)C1O (stereo not given in full) | > 100 | > 100 | > 100 | > 100 | > 100 | > 100 | > 100 | > 100 | > 100 | > 100 | – | – | – | – | – | – | – | – | – | –
Cc1cc(O)c(-c2ccc([C@@H](C)CN(C)C)cc2)c2c1[nH]c(=O)c1sccc12 | 0.929 | 7.95 | 6.23 | 8.87 | 6.41 | > 49.1 | 10.6 | 0.53 | 14.8 | 6.86 | 0.265 | 0.794 | 0.585 | 0.406 | 1.06 | 0.335 | 0.769 | 0.167 | 1.14 | 1.76
COc1ccc([C@@H]2OC(=O)C3C2C(=O)O[C@H]3c2ccc(OC)c(OC)c2)cc1OC (stereo not given in full) | > 100 | > 100 | > 100 | > 100 | > 100 | > 100 | > 100 | > 100 | > 100 | > 100 | – | – | – | – | – | – | – | – | – | –
COc1ccc(-c2cc(=O)c3c(O)c(OC)c(OC)c(OC)c3o2)cc1 | > 27.6 | > 100 | > 100 | > 100 | > 74.7 | > 100 | > 100 | 62.2 | > 100 | > 100 | – | – | – | – | – | – | – | – | – | –
N#CC1=C(N)NC(=O)NC12Nc1ccccc1N2 | > 100 | > 100 | > 100 | > 100 | > 100 | > 100 | > 100 | > 100 | > 100 | > 100 | > 100 | > 100 | > 100 | > 100 | > 100 | > 100 | > 100 | > 100 | > 100 | > 100
CC1SC(c2ccc(Cl)cc2Cl)N(NC(=O)C(O)c2ccccc2)C1=O (stereo not given) | > 100 | > 100 | > 100 | > 100 | > 100 | > 100 | 98.5 | > 100 | > 100 | > 100 | > 100 | 48.4 | 68.8 | 62 | 64.1 | 47.7 | 28.5 | 42.9 | 81.3 | 61.7
N#Cc1cccc(C2C3=C(COC3=O)N(CCO)c3cc4c(cc32)OCO4)c1 (stereo not given) | 4.14 | > 50 | > 50 | > 50 | > 50 | > 50 | > 50 | 4.54 | > 50 | > 50 | 1.2 | 3.53 | 2.78 | 1.43 | 3.58 | 1.83 | 10.9 | 1.26 | 3.99 | > 50
O=C(Nc1cccc(C(F)(F)F)c1)Oc1ccc(Cl)c2cccnc12 | 12.4 | 5.43 | 6.88 | 8.03 | 11.7 | 5.08 | 14.8 | 5.49 | 16.6 | 3.24 | 3.82 | 1.23 | 1.83 | 0.615 | 1.48 | 1.01 | 0.831 | 1.2 | 1.36 | 1.32
C[C@]12C[C@H](O)[C@H]3[C@@H](CCC4=CC(=O)CC[C@@]43C)[C@@H]1CC[C@@H]2c1csc(-c2ccccc2)n1 | > 100 | > 100 | > 100 | > 100 | > 100 | > 100 | > 73.8 | > 100 | > 100 | > 100 | – | – | – | – | – | – | – | – | – | –
C[C@@H]1CC[C@@]2(NC1)O[C@H]1C[C@H]3[C@@H]4CC[C@H]5C[C@@H](O)CC[C@]5(C)[C@H]4CC[C@]3(C)[C@H]1[C@@H]2C | > 100 | 85.5 | > 100 | > 100 | > 100 | > 100 | 71.7 | > 100 | > 100 | > 100 | – | – | – | – | – | – | – | – | – | –
O=C([O-])CC(=O)[O-].[NH-][C@@H]1CCCC[C@H]1[NH-].[Pt+4] | > 81.5 | > 100 | > 100 | > 100 | > 97.3 | > 100 | > 100 | > 100 | > 100 | > 100 | 20.7 | > 35.9 | > 100 | 4.84 | 16.9 | 3.17 | > 33.9 | > 79 | 59.1 | > 89
O=c1c2cc3ccccc3n2c(=O)c2cc3ccccc3n12 | > 100 | > 100 | > 100 | > 100 | > 100 | > 100 | > 100 | > 100 | > 100 | > 100 | – | – | – | – | – | – | – | – | – | –
C=C(C)[C@@H]1CC[C@]2(C(=O)NS(=O)(=O)c3ccccc3)CC[C@]3(C)[C@H](CC[C@@H]4[C@@]5(C)CC[C@H](OC(=O)NS(=O)(=O)c6ccccc6)C(C)(C)[C@@H]5CC[C@]43C)[C@@H]12 | 4.69 | 9 | 21.9 | 3.56 | 8.51 | 3.26 | 51.4 | 3.26 | 32.1 | 9.06 | 1.65 | 2.73 | 3.17 | 1.47 | 2.41 | 1.49 | 3.04 | 1.61 | 3.03 | 3.06
COC(=O)CC[C@]12C[C@]13CC[C@]1(C)C4C(C)C[C@]5(CC(C)C(=O)O5)OC4CC1(C)C3CCC2C(C)(C)O (stereo not given in full) | > 100 | > 100 | > 100 | > 100 | > 100 | > 100 | > 100 | > 100 | > 100 | > 100 | – | – | – | – | – | – | – | – | – | –
N#Cc1cc(S(=O)(=O)Nc2nc3ccccc3o2)c(SCc2ccccc2)cc1Cl | 43.7 | > 100 | 42.7 | 38.6 | 54.3 | 56.1 | > 100 | 53.1 | > 100 | 55.9 | 21.3 | 32.6 | 18.4 | 17.8 | 26.1 | 21.5 | 42.1 | 23.9 | 31.7 | 22.3
CC1(C)CCC[C@]2(C)c3ccccc3C(=O)CC12 (stereo not given in full) | 71.4 | > 100 | > 100 | > 100 | > 100 | > 100 | > 100 | > 100 | > 100 | > 100 | 26 | 67.4 | 42.9 | 35 | 39.4 | 34.9 | > 100 | 82.1 | 34.3 | 32.5
O=C1NC2C(O)CCCCC2C12CCCCC2 (stereo not given) | > 100 | > 100 | > 100 | > 100 | > 100 | > 100 | > 100 | > 100 | > 100 | > 100 | – | – | – | – | – | – | – | – | – | –
COc1cc(/C=N/N=C(\N)NO)c([N+](=O)[O-])cc1OC | > 100 | 86.5 | > 100 | 75.1 | 99.4 | > 100 | > 100 | 65.2 | 99.2 | > 100 | – | – | – | – | – | – | – | – | – | –
COc1cc2nccc(Oc3ccc(NC(=O)c4cn(C(C)C)c(=O)n(-c5ccc(F)cc5)c4=O)cc3F)c2cc1OC | 6.27 | > 26.3 | > 100 | > 100 | > 100 | > 100 | > 100 | > 100 | > 51.6 | > 77.5 | 1.64 | 2.69 | > 30.1 | 5.4 | > 100 | 4.98 | > 20.8 | > 21.1 | 4.51 | 7.65
COc1cc(NCCCCCN=C(N)NC(N)=NC(C)C)c2ncccc2c1 | 28.1 | 31.2 | 18.5 | 10.5 | 2.3 | 18.1 | 0.633 | 18.3 | 13.8 | 4.81 | 13.8 | 14.8 | 2.28 | 0.392 | 0.401 | 4.49 | 0.0363 | 6.03 | 0.689 | 1.04
C[CH2][Sn]([CH2]C)([O]C(=O)c1ccc(F)cc1)[O]C(=O)c1ccc(F)cc1 | 36.3 | 32.4 | > 100 | > 55.8 | 32.8 | > 100 | > 100 | 28.8 | 33.5 | 41 | 16.8 | 17.8 | > 100 | 33 | 17.3 | > 100 | 52.4 | 13.7 | 17.9 | 19.7
COc1ccc2[nH]c(C(=O)OCc3ccc4c(Cl)cc(Cl)c(O)c4n3)cc2c1 | 3.73 | 2.26 | 2.88 | 1.65 | 3.37 | 3.45 | 2.92 | 1.76 | 2.77 | 4.23 | 1.91 | 1.08 | 1.45 | 0.436 | 1.57 | 1.75 | 1.49 | 0.407 | 1.42 | 1.64
CO[C@@]1(c2ccccc2)O[C@H]2OCCC2[C@H]1c1ccc(Cl)cc1 (stereo not given in full) | 53.3 | > 100 | 64.5 | > 100 | 81.6 | 57.8 | 91.1 | 57.4 | > 100 | 44.6 | – | – | – | – | – | – | – | – | – | –
CNC(=O)c1cncc(/C=C/c2ccccc2Cl)c1 | > 25 | > 25 | > 25 | > 25 | > 25 | > 25 | > 25 | > 25 | > 25 | > 25 | > 25 | > 25 | > 25 | > 25 | > 25 | > 25 | > 25 | > 25 | > 25 | > 25
